Key:
Human ALDH3A1 = target: T1, Human ALDH3A1 (Homo sapiens, UniProt P30838); test: ALDH3A1 biochemical assay (benzaldehyde/NADP+, diaphorase-resazurin readout, 1,536-well)
T1 sequence (P30838 1-453): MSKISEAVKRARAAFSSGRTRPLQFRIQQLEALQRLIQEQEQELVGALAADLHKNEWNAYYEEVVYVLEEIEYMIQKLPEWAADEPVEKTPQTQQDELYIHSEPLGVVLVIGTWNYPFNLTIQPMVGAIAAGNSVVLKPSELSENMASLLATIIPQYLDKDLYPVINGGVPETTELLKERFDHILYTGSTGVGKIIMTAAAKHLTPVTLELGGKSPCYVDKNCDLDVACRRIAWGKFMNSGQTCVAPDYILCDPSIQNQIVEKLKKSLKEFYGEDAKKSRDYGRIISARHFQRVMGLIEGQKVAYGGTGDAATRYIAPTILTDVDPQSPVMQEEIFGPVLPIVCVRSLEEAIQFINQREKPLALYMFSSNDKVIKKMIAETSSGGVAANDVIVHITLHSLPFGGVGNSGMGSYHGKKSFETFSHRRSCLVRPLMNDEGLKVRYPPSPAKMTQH

OE19 (3A1) = target: T2, OE19 (3A1) (Homo sapiens, UniProt P30838); test: Cellular ALDEFLUOR assay in OE19 cells (preferential ALDH3A1 expression)
T2 sequence (P30838 1-453): T1 sequence (P30838 1-453)

[1] = Table S4, biochemical curve class
[2] = Table S5, biochemical curve class

SMILES | AC50 (Human ALDH3A1) | Efficacy (Human ALDH3A1; Table S4, biochemical) | CC-v2 (Human ALDH3A1; [1]) | AC50 (OE19 (3A1)) | Cell_Efficacy (OE19 (3A1); Table S4, OE19 cells) | Cell_CC-v2 (OE19 (3A1); Table S4, cellular curve class) | Efficacy (Human ALDH3A1; Table S5, biochemical) | CC-v2 (Human ALDH3A1; [2]) | Cell_Efficacy (OE19 (3A1); Table S5, OE19 cells) | Cell_CC-v2 (OE19 (3A1); Table S5, cellular curve class)
Cc1cccc(CNC(=O)c2csc(N3CCN(c4ccc(OCCF)cc4)CC3)n2)c1 [NCGC01211173-01] | 3240 nM | -45.43 | -1.2 | 1400 nM | -87.33 | -1.1 | – | – | – | –
COc1ccc(N2CCN(c3nc(C(=O)NCc4cccc(C)c4)cs3)CC2)c(OC)c1 [NCGC01211174-01] | 1150 nM | -66.83 | -1.2 | 8810 nM | -87.39 | -1.1 | – | – | – | –
Cc1cccc(CNC(=O)c2csc(N3CCN(c4cccc(Sc5ccc(C)cc5C)c4)CC3)n2)c1 [NCGC01211184-01] | – | -26.97 | 4 | 310 nM | -95.63 | -1.1 | – | – | – | –
Cc1cccc(CNC(=O)c2csc(N3CCN(c4ccc(N5CCOCC5)cc4)CC3)n2)c1 [NCGC01211186-01] | 4080 nM | -37.13 | -1.2 | 3130 nM | -98.82 | -1.1 | – | – | – | –
Cc1cccc(CNC(=O)c2csc(N3CCN(Cc4cccc(C)c4)CC3)n2)c1 [NCGC01211187-01] | 910 nM | -93.83 | -1.1 | 4420 nM | -121.01 | -2.1 | – | – | – | –
COc1ccc(F)c(N2CCN(c3nc(C(=O)NCc4cccc(C)c4)cs3)CC2)c1 [NCGC01211189-01] | 910 nM | -85.97 | -1.1 | 7850 nM | -96.01 | -1.1 | – | – | – | –
Cc1cccc(CNC(=O)c2csc(N3CCN(c4ccc(C#N)cc4)CC3)n2)c1 [NCGC01211190-01] | 1450 nM | -61.92 | -1.2 | 3510 nM | -84.69 | -1.1 | – | – | – | –
Cc1cccc(CNC(=O)c2csc(N3CCN(c4ccc(C(N)=O)cc4)CC3)n2)c1 [NCGC01211194-01] | 40800 nM | -38.00 | -2.2 | 880 nM | -43.91 | -1.2 | – | – | – | –
Cc1cccc(CNC(=O)c2csc(N3CCN(c4ccc(C)c(C)c4)CC3)n2)c1 [NCGC01211295-01] | 1020 nM | -92.09 | -1.1 | 2210 nM | -85.13 | -1.3 | – | – | – | –
Cc1cccc(CNC(=O)c2csc(N3CCN(c4cccc(OCc5ccccc5C)c4)CC3)n2)c1 [NCGC01211373-01] | 360 nM | -60.22 | -1.2 | 1110 nM | -85.56 | -1.1 | – | – | – | –
COc1ccc(Cl)c(N2CCN(c3nc(C(=O)NCc4cccc(C)c4)cs3)CC2)c1 [NCGC01211381-01] | 580 nM | -89.43 | -1.1 | 31300 nM | -102.69 | -2.3 | – | – | – | –
Cc1cccc(CNC(=O)c2csc(N3CCN(c4c(F)cccc4F)CC3)n2)c1 [NCGC01211383-01] | 910 nM | -88.99 | -1.1 | 15700 nM | -112.70 | -2.1 | – | – | – | –
Cc1cccc(CNC(=O)c2csc(N3CCN(c4ccc(OC(F)(F)F)cc4)CC3)n2)c1 [NCGC01211384-01] | 650 nM | -96.17 | -1.1 | 3930 nM | -82.59 | -1.1 | – | – | – | –
COc1cc(N2CCN(c3nc(C(=O)NCc4cccc(C)c4)cs3)CC2)cc(OC)c1OC [NCGC01211386-01] | 3640 nM | -76.22 | -1.2 | 9880 nM | -70.97 | -1.2 | – | – | – | –
COc1ccc(N2CCN(c3nc(C(=O)NCc4cccc(C)c4)cs3)CC2)cc1O [NCGC01211394-01] | 1150 nM | -71.12 | -1.2 | 15700 nM | -88.85 | -2.3 | – | – | – | –
COc1cc(N2CCN(c3nc(C(=O)NCc4cccc(C)c4)cs3)CC2)ccc1F [NCGC01211397-01] | 2890 nM | -71.38 | -1.2 | 2790 nM | -82.14 | -1.1 | – | – | – | –
CCc1ccc(N2CCN(c3nc(C(=O)NCc4cccc(C)c4)cs3)CC2)cc1Cl [NCGC01211398-01] | 580 nM | -91.75 | -1.1 | 2480 nM | -99.68 | -1.1 | – | – | – | –

SMILES | AC50 (Human ALDH3A1) | Efficacy (Human ALDH3A1; Table S4, biochemical) | CC-v2 (Human ALDH3A1; [1]) | AC50 (OE19 (3A1)) | Cell_Efficacy (OE19 (3A1); Table S4, OE19 cells) | Cell_CC-v2 (OE19 (3A1); Table S4, cellular curve class) | Efficacy (Human ALDH3A1; Table S5, biochemical) | CC-v2 (Human ALDH3A1; [2]) | Cell_Efficacy (OE19 (3A1); Table S5, OE19 cells) | Cell_CC-v2 (OE19 (3A1); Table S5, cellular curve class)
Cc1cccc(CNC(=O)c2csc(N3CCN(c4cccc(C)c4)CC3)n2)c1 [NCGC01211399-01] | 1150 nM | -77.88 | -1.2 | 5560 nM | -101.59 | -1.3 | – | – | – | –
Cc1cccc(CNC(=O)c2csc(N3CCN(c4cc(Cl)c(Cl)c(Cl)c4)CC3)n2)c1 [NCGC01211545-01] | 580 nM | -72.19 | -1.2 | 390 nM | -73.43 | -1.2 | – | – | – | –
COc1ccc(N2CCN(c3nc(C(=O)NCc4cccc(C(F)(F)F)c4)cs3)CC2)cc1 [NCGC01211588-01] | 1290 nM | -45.52 | -1.2 | 1970 nM | -97.51 | -1.1 | – | – | – | –
COc1ccc(N2CCN(c3nc(C(=O)NCc4cccc(C)c4)cs3)CC2)cc1OC [NCGC01211669-01] | 6470 nM | -51.05 | -1.2 | 8810 nM | -91.42 | -1.1 | – | – | – | –
CCOC(=O)Cc1ccc(N2CCN(c3nc(C(=O)NCc4cccc(C)c4)cs3)CC2)cc1 [NCGC01212809-01] | 3240 nM | -99.09 | -1.1 | 3930 nM | -80.26 | -1.1 | – | – | – | –
Cc1cccc(CNC(=O)c2csc(N3CCN(c4cncc(Br)c4)CC3)n2)c1 [NCGC01212814-01] | 1290 nM | -92.59 | -1.1 | – | 0.00 | 4 | – | – | – | –
Cc1cccc(CNC(=O)c2csc(N3CCN(c4cccc(F)c4)CC3)n2)c1 [NCGC01219288-01] | 1020 nM | -96.39 | -1.1 | 990 nM | -85.92 | -1.1 | – | – | – | –
Cc1cccc(CNC(=O)c2csc(N3CCN(c4cccc(OC(F)(F)F)c4)CC3)n2)c1 [NCGC01219289-01] | 730 nM | -97.63 | -1.1 | 990 nM | -93.51 | -1.1 | – | – | – | –
Cc1cccc(CNC(=O)c2csc(N3CCN(c4ccc(F)cc4)CC3)n2)c1 [NCGC01219292-01] | 1150 nM | -94.91 | -1.1 | 880 nM | -90.33 | -1.3 | – | – | – | –
O=C(Nc1ccncc1)c1ccc(CNC(=O)c2csc(N3CCN(c4cccc(C(F)(F)F)c4)CC3)n2)cc1 [NCGC01396478-01] | – | – | – | 6310 nM | – | – | -22.34 | 4 | -114.29 | -2.1
O=C(NCc1ccc(Br)c(C(F)(F)F)c1)c1csc(N2CCN(c3cccc(C(F)(F)F)c3)CC2)n1 [NCGC01396480-01] | 11.2 nM | – | – | 1360 nM | – | – | -96.06 | -1.1 | -77.80 | -1.4
O=C(NCc1ccc2c(c1)COC2=O)c1csc(N2CCN(c3cccc(C(F)(F)F)c3)CC2)n1 [NCGC01396481-01] | 39.8 nM | – | – | 342 nM | – | – | -98.89 | -1.1 | -73.69 | -1.4
COc1cc(CNC(=O)c2csc(N3CCN(c4cccc(C(F)(F)F)c4)CC3)n2)ccc1F [NCGC01396486-01] | 15.9 nM | – | – | – | – | – | -100.89 | -1.1 | 0.00 | 4
O=C(NCc1ccc2c(c1)C(=O)NCC2)c1csc(N2CCN(c3cccc(C(F)(F)F)c3)CC2)n1 [NCGC01397286-01] | 447 nM | – | – | 398 nM | – | – | -60.58 | -1.2 | -10.99 | 5
CC(=O)c1cccc(CNC(=O)c2csc(N3CCN(c4cccc(C(F)(F)F)c4)CC3)n2)c1 [NCGC01397289-01] | 25.1 nM | – | – | 342 nM | – | – | -100.97 | -1.1 | -79.11 | -1.3
O=C(NCc1ccc2c(c1)CNC2=O)c1csc(N2CCN(c3cccc(C(F)(F)F)c3)CC2)n1 [NCGC01397290-02] | 398 nM | – | – | – | – | – | -53.79 | -1.2 | 0.00 | 5

— publication PMC13266984 (Journal of medicinal chemistry, 2026)
